What is called melting point is the temperature, or range, at which the solid turns liquid.

Regarding `Cc1cnc2c(c1)C(=O)c1nccc(Br)c1C2=O`, the melting point was above 200 °C. For `Cc1cc2c(cc1C)C(c1ccccc1)(C(F)(F)C(F)(F)F)c1cc(C)c(C)cc1O2` the value was 178 to 179 °C; for `O=C(CCCCCNC(=O)Nc1cn2c3c(cccc13)CCC2)NO`, 161 to 163 °C; for `Ic1c[nH]c2nccc(OC3CCCCC3)c12`, 199 to 201 °C. For `CC(=O)OC1CSC(Oc2ccccc2C(C)=O)C(OC(C)=O)C1OC(C)=O` (stereo not given) the value was 112 °C.

In turn, `Cc1[nH]cc2c(=O)n(-c3ccc(F)cc3)nc-2c1-c1ccccc1` yielded a melting point of 303 to 317 °C. The same measure for `COc1ccccc1-c1cc(O)c(-c2ccccc2C(=O)O)nn1`: 224 to 227 °C; for `CCCCN(CCCC)C(=S)Nc1ccc(NNC=O)cc1`: 139 to 141 °C; for `Cc1cc(-n2cnn(Cc3ccc(F)cc3)c2=O)sc1C(=O)NCc1ncco1`: 163 to 165 °C.

`COc1cc(OCCN2CCOCC2)c(C=O)cc1-c1cccs1`: the melting point is 130 to 131 °C. In the case of `O=C(Oc1ccc([N+](=O)[O-])cc1)c1ccc2[nH]cc(CCN3C(=O)c4ccccc4C3=O)c2c1`, the melting point lay in the range of 248 to 251 °C. Take `CCOc1ccc(-c2ccc(-c3ccc(C4CCC(c5c(F)cccc5F)=N4)cc3)cc2)s1` (stereo not given): the melting point was 128 to 134 °C. The same measure for `CCOC(=O)c1c(O)c2ccc(C)nc2n(Cc2ccccc2)c1=O`: 155 to 157 °C; for `Cn1c(=O)cc(-c2cccc(Cl)c2)c2cc(C(N)(c3ccc(Cl)cc3)c3cnccc3Cl)ccc21` (stereo not given): 180 °C. The same measure for `CC(/C=C/c1ccsc1-c1cc2c(cc1C)C(C)(C)CCC2(C)C)=C\C(=O)O`: 194 to 195 °C; for `NS(=O)(=O)c1ccc(-c2cccc(-c3nc(-c4ccc(C(F)(F)F)nc4)cc(C(F)F)n3)c2)s1`: 246 °C.

The compound `Cc1c(NC(=O)c2ccc(-c3ccccc3Cl)cc2)ccc2cc(CN3CCCC3)cnc12` had a melting point of 128 to 129 °C. For `O=C(Nc1n[nH]c(=S)s1)NC(Cc1ccccc1)C(=O)NCc1cccc2ccccc12` (stereo not given) the value was 234 to 235 °C. For `COc1cc(NC(=O)Nc2ccccc2)c(O)c(C(C)(C)C)c1` the value was 147 to 149 °C; for `CC(Cc1cc(F)cc2c(Cl)coc12)NC(=O)OC(C)(C)C` (stereo not given), 127 to 129 °C. For `COC(=O)c1ccc(-c2nc(-c3ccc(Cl)cc3)no2)c([N+](=O)[O-])c1` the value was 189 to 190 °C; for `Cc1ccc(OS(=O)(=O)c2ccc(N3CCN(C)C3=O)cc2)c(C)c1`, 159 to 161 °C; for `O=C(CCc1cnn2c(=O)[nH]cnc12)NCCCN1CCCC1=O`, 180 to 181 °C.

`CN(C)CCc1cn(C(=O)c2ccccc2)c2ccc(O)cc12` yielded a melting point of 154 to 156 °C. The same measure for `CCOC(=O)C1=C(COCCNC2=NCCS2)NC(C)=C(C(=O)OC)C1c1ccccc1Cl` (stereo not given): 145 to 147 °C. For `Nc1nc(NCCO)c(Cl)nc1[N+](=O)[O-]` the value was 196 to 197 °C. In turn, `O=C(Nc1ccccc1O)C(=O)Nc1ccccc1O` showed a melting point above 250 °C. `O=C(c1cc(=O)c2cc(O)ccc2[nH]1)N1CCC(OCc2ccccc2)CC1` came in with a melting point of 103 °C. For the compound `Oc1nc2ccc3nonc3c2nc1O`, the melting point was above 300 °C.

In turn, `NC(=NO)c1cc2cc(F)c(F)cc2o1` returned a melting point of 184 °C. The same measure for `CCOC(=O)c1cn(CCC(C)C)c2nn(C)cc2c1=O`: 105 to 106 °C. The same measure for `O=C1OC2(CCc3ccccc32)c2ccccc21` (stereo not given): 138 to 139 °C; for `O=c1cnc2c([N+](=O)[O-])c(Cl)c(Cl)cc2[nH]1`: 330 to 332 °C. The same measure for `CCCCCCCCc1c(CCCCCCCC)c(-c2ccccc2)n(-c2ccc(C)cc2)c1-c1ccccc1`: 100 to 101 °C. In turn, `O=C(Cl)C=Cc1ccc(Cl)cc1` showed a melting point of 78 to 80 °C. For `CCCCOc1cc(/C=C(\OCC)C(=O)O)ccc1OCCc1ccc(N(C)S(C)(=O)=O)cc1` the value was 112 °C; for `O=C1Nc2ccccc2CN(c2ccccc2)N1`, 283 to 286 °C. The compound `Cc1cc(F)cc2nc(Cl)c(Cl)nc12` registered a melting point of 116 to 120 °C.

On to `O=c1[nH]c2ncc(-c3ccc(-c4ncc[nH]4)cc3)nc2n1CC1CCCCC1`, for which the melting point was in the range of 349 to 351 °C.

The compound `COc1cncnc1N1CCN(CCCc2c[nH]c3ccc(CNC(C)=O)cc23)CC1` yielded a melting point of 169 to 174 °C. The same measure for `O=Cc1c(OCCCCCCC(=O)N(Cc2ccccc2)Cc2ccccc2)cc(Cl)cc1[N+](=O)[O-]`: 76 to 77 °C; for `O=C(c1ccc(-c2ccccc2)s1)c1ccc(Br)cc1Cl`: 132 to 134 °C; for `Cn1nnnc1C(C=CC=O)=C(c1ccc(F)cc1)c1ccc(F)cc1`: 156 to 158 °C. As to `CCCc1cc2c(cc1O)CCO2`, the melting point lay in the range of 73 to 74 °C.

As to `O[C@@H]1CCCC[C@H]1Nc1ccccc1` (relative stereo), the melting point lay in the range of 57 to 58 °C. For `O=C(O)c1cn(CC2CC2)c2ccccc12` the value was 157 °C; for `O=C(CCCNC(=O)C(=O)c1cn2c3c(cccc13)CCC2)NO`, 95 to 97 °C; for `O=C1Nc2cc3c(cc2O[C@H]1CCCO)CCCC3`, 139 to 140 °C.

As for `Cc1c(Cc2ccc(C(C)C)cc2)c2c(c(C)c1NC(=O)CC(C)(C)C)C(N(C)C)C(C)(C)O2` (stereo not given), the melting point was 138 to 139 °C.

Regarding `COc1ccccc1Oc1c(NS(=O)(=O)c2ccc3ccccc3c2)nc(N2CCOCC2)nc1OCCOc1ncc(Br)cn1`, the melting point lay in the range of 178 to 182 °C. The same measure for `CN(C)c1ccc([N+](=O)[O-])c(C#N)c1`: 174 to 175 °C; for `C=CCOc1cc2c(cc1C=CC)N(CC=C(C)C)C(=O)CC2`: 87 to 88 °C. For `CCOC(=O)c1cc2c3ccccc3n(Cc3ccccc3)c2cn1` the value was 126 to 127 °C. For `Cc1nc2sc3ccccc3n2c1C(C)O` (stereo not given) the value was 173 to 174 °C; for `Fc1cccc(C=Cc2nccc3ccccc23)c1`, 89 to 99 °C; for `Cc1nc(C(=O)Nc2cccc(Oc3ccc4nc(NC(=O)C5CC5)cn4n3)c2)c(C)o1`, 224 °C. Compound `CCCCCCCCCCOc1cc(N)cc(OCCCCCCCCCC)c1` had a melting point of 48 to 50 °C. The same measure for `COC(=O)CCn1c(=O)n2n(c1=O)C(C(=O)OC)C=CC2C(=O)OC` (stereo not given): 139 to 141 °C; for `CCOC(=O)c1cc(C#N)c(C)nc1Nc1ccccc1`: 133 to 135 °C; for `O=C(O)Cc1ccc2c(c1)C(=O)c1ccccc1CO2`: 126 to 128 °C. For the compound `Cc1c(F)c(F)c(F)c2c1c(=O)c(C(=O)O)cn2CCO`, the melting point lay within 244 to 247 °C. The same measure for `CCCOC(Cc1ccc(OCCc2nc(C(C)(C)C)oc2C)c2ccccc12)C(=O)O` (stereo not given): 135 to 137 °C. For `O=C(O)c1cccc(-c2ncn(-c3ccc(N4CCCC4)cc3)n2)c1` the value was 263 to 265 °C; for `CCCCC1(CCCC)NC(c2nc(-c3ccccc3)cs2)Cc2c1[nH]c1ccccc21` (stereo not given), 134 to 136 °C; for `COc1nc(N)nc(-c2ccccc2)c1-c1ccc(=O)n(C(C)C)n1`, 230 to 233 °C. For `O=C(CCCN1C(=O)c2ccccc2C1=O)N1CCCC2=C1CCc1cc(Cl)ccc12` the value was 182 to 183 °C; for `COc1cc(COc2nn(-c3ccccc3)cc2CC#N)ccc1OCc1nc(-c2ccco2)oc1C`, 153 to 154 °C; for `Cc1cc(-n2ccnc2)cc2ccc(=O)[nH]c12`, 259 to 262 °C.

As to `CC(C)C1=CC(=O)C2=C(CCC3C(C)(C(=O)O)CCCC23C)C1=O` (stereo not given), the melting point lay within 207 to 209 °C.

Compound `O=C(O)CN1CCNCC1` returned a melting point of 130 to 132 °C.

Compound `CC(C)(C)c1ccc(N2C[C@H](Cn3ccnn3)OC2=O)cc1` came in with a melting point of 140 to 142 °C.

Compound `NCC1CCc2[nH]c3ccc(OC(F)(F)F)cc3c2C1` (stereo not given) registered a melting point of 148 to 150 °C. For `C=CCONC(=O)c1nc(-c2ccc(Cl)c(OC)c2F)nc(N)c1Cl` the value was 159 to 161 °C; for `Nc1nc(O)c2c(n1)NCC(CCc1ccc(C(=O)N[C@@H](CCC(=O)O)C(=O)O)s1)C2` (stereo not given in full), 204 to 230 °C. The same measure for `CCc1nc(-c2ccccc2)n(CC(C)(OC)OC)c(=O)c1C`: 80 to 83 °C. Turning to `COCCCNC(=O)c1[nH]c(C)c(-c2nc3ccc(C(=O)c4ccccc4)cc3[nH]2)c1C`, the melting point lay within 256 to 258 °C. The same measure for `CC(=O)Oc1cccc(C(=O)NCCO[N+](=O)[O-])c1`: 89 to 91 °C; for `O=C1c2ccccc2C(=O)c2sc(-c3ccc(F)cc3)nc21`: above 260 °C; for `CCOP(=O)(Cc1ccc2nc(-c3ccc(OC)cc3)oc2c1)OCC`: 86 to 88 °C. The compound `CCOc1cc2ncnc(Cl)c2cc1OCC` yielded a melting point of 141 to 143 °C. For `CC(=O)OC1CSC(Oc2cnccc2C)C(OC(C)=O)C1OC(C)=O` (stereo not given) the value was 150 °C. For `COc1ccccc1C1=Nc2ccc(N3CCOCC3)cc2C(=O)C1` the value was 262 to 264 °C; for `COC(=O)c1ccccc1S(=O)(=O)NC(=O)Nc1nc(OC)cc(OC)n1`, 185 to 190 °C; for `CCN(CC)C(=O)OC1c2ccccc2C(=O)N1c1ccc2ccc(Cl)nc2n1` (stereo not given), 142 to 144 °C. For `COc1ccccc1NC(=O)Nc1nc2nc(NCCCN3CCN(C)CC3)ncc2cc1-c1c(Cl)cccc1Cl` the value was 152 to 154 °C; for `O=C(CCN1CCN(c2ncc(F)cn2)CC1)Cc1cccs1`, 77 to 78 °C; for `COc1c(C)c(N2CCN(c3ccc(F)cc3)CC2)c(C)c2c1OC(C)C2` (stereo not given), 114 to 116 °C.

For `Cc1c([N+](=O)[O-])c(=O)n(-c2cc(C(=O)OC(C)C)c(Cl)cc2F)c(=O)n1C`, the melting point lay in the range of 129 to 131 °C. As for `O=C(c1ccc(O)c(Cl)c1)N1CC=CCC1`, the melting point is 186 to 189 °C. The same measure for `C(#Cc1ccccc1)C1=CCN(Cc2c[nH]c3ncccc23)CC1`: 198 to 200 °C.

The record behind these values is a melting point compilation (Tetko et al.; mined from patent text by program, amines drawn as free bases though some values may be those of a salt).
